Values of other authors in patent US12409165B2, “Pharmaceutical composition comprising eltrombopag bis(monoethanolamine)” (SYNTHON B.V., priority 2019, dated 2025).

Experiments:
[1] = qualitative statement in the background, no method given
[2] = qualitative statement in the background, no method given; remark: listed apart in the source

- permeability [1]: medium
- solubility [2]: low
SMILES: CC1=NN(c2ccc(C)c(C)c2)C(=O)/C1=N\Nc1cccc(-c2cccc(C(=O)O)c2)c1O.NCCO.NCCO [Eltrombopag bis(monoethanolamine), 3′-{(2Z)-2-[1-(3,4-dimethylphenyl)-3-methyl-5-oxo-1,5-dihydro-4H-pyrazol-4-ylidene]hydrazino}-2′-hydroxy-3-biphenyl-carboxylic acid bis(monoethanolamine)]
